Measured values reported in patent publication US4020076A, “Novel phosphoryloxy-thiazoles” (priority 1974, dated 1977).
Where two headings read alike, the source gives them in different places.

Experiments:
Aedes aegypti larvae = experiment: Activity against Aedes aegypti larvae; type: in vivo; conditions: for mortality at 0.25 µg/mL: 0.25 mg/l (10^-3 ppm); for mortality at 2.5 µg/mL: 2.5 mg/l (10^-2 ppm); for mortality at 25 µg/mL: 25 mg/l
Protocol: f. Activity against Aedes aegypti larvae
10 Aedes aegypti larvae in the IV stage in 49 ml of water were added to 200 ml of water and 1 ml of an acetone solution of the test product was added thereto.

[1] = tested on: Leptinotarsa Decemlineata; experiment: Activity against Leptinotarsa Decemlineata larvae; type: in vivo; conditions: for mortality at 500 µg/mL: 50 g/hl; for mortality at 1000 µg/mL: 100 g/hl
Excerpt: h. Activity againt Leptinotarsa Decemlineata
Eggplant leaves with about 40 cm^ 2 of surface area (10 × 4 cm) were cut out of untreated plants and were washed with water and dried before being immersed for 10 seconds in an acetone solution of the test product. After drying, the leaves were placed in a plastic ventilated dish and 10 larvae of Leptinotarsa Decemlineata in the fourth stage were placed thereon.

[2] = 24 h, read-out: % of mortality after 24 H
[3] = 48 h, read-out: % of mortality after 48 H
[4] = 1 h, read-out: % of mortality after 1 H

Structure (SMILES): CCOc1nc(OP(=S)(OC)OC)c(C#N)s1 [Compound C, 2-ethoxy-4-dimethoxythiophosphoryloxy-5-cyano-thiazole]
- mortality at 0.25 µg/mL (Aedes aegypti larvae; [2]): 0%
- mortality at 2.5 µg/mL (Aedes aegypti larvae; [2]): 0%
- mortality at 25 µg/mL (Aedes aegypti larvae; [2]): 100%
- mortality at 0.25 µg/mL (Aedes aegypti larvae; [3]): 0%
- mortality at 2.5 µg/mL (Aedes aegypti larvae; [3]): 0%
- mortality at 25 µg/mL (Aedes aegypti larvae; [3]): 100%
- mortality at 500 µg/mL [1, 4]: 0%
- mortality at 1000 µg/mL [1, 4]: 0%
- mortality at 500 µg/mL [1, 2]: 40%
- mortality at 1000 µg/mL [1, 2]: 100%
- mortality at 500 µg/mL [1, 3]: 40%
- mortality at 1000 µg/mL [1, 3]: 100%
